Patent publication USRE38352E1, “Polymerase chain reaction assays for monitoring antiviral therapy and making therapeutic decisions in the treatment of acquired immunodeficiency syndrome” (priority 1992, dated 2003)
Several values for one entry are separate records, joined by “and”; a condition that tells them apart may be missing. Equal entries are not always repeated.

How the values were obtained:
plasma HIV RNA = assay: Plasma HIV RNA copy number by cDNA gene amplification (PCR) and enzyme-linked affinity assay; assay type: in vivo, human (HIV antibody-positive subjects); conditions: individual patient
Description: After informed consent was obtained, whole blood samples were collected by venipuncture in the presence of acid-citrate-dextrose as an anticoagulant. A single plasma sample was collected from 39 HIV antibody-positive subjects who were not receiving antiretroviral therapy at the time of collection and from 33 HIV antibody-positive subjects who were currently on and had received AZT for a minimum of 3 mo.
(§1) Two plasma samples were collected from an additional 27 subjects before and 1 month after initiation of dideoxynucleoside therapy. 18 of these subjects received 500 mg/d of AZT orally. Seven subjects received a combination of zidovudine (150-600 mg/d) and 2′,3′-dideoxyinosine (ddI) (134-500 mg/d). Two patients received 500 mg/d of ddI alone (see Table I for individual subject characteristics). Finally, nine of these subjects had two plasma samples taken 1-3 wk. before initiating antiretroviral therapy and two plasma samples taken 1 and 2 mo. after commencing therapy. Plasma was separated within 4 h. by centrifugation at 500 g for 10 min. A second centrifugation was performed on the plasma at 500 g for 30 min. to remove any cellular material. 200 μl of plasma was then mixed with 200 μl of a solution containing 5M guanidinium thiocyanate, vortexed briefly, and stored at −70° C. until further use. All samples were assayed within 3 mo. of collection. To decrease variance, all specimens to be compared from the same subject were run in the same assay.
RNA was extracted from plasma by the method described in Chomczynski et al., 1987, Ann. Biochem. 162:156-159. Briefly, 200 μl of clarified plasma to which 200 μl of 5M guanidinium thiocyanate had previously been added was extracted with phenol/chloroform and precipitated with isopropanol. The resulting pellet was then washed in 75% ethanol, dried, and brought up in diethylpyrocarbonate treated, glass distilled water.
HIV RNA was transcribed to cDNA using Moloney murine leukemia virus reverse transcriptase (Bethesda Research Laboratories, Gaithersburg, Md.) by the method described in Kawasaki, 1990, “In PCR Protocols: A Guide to Methods and Applications” pp. 21-27, M. A. Innis, D. H. Gelfand, J. J. Sninsky, and T. J. White, eds. Academic Press, Berkeley, Calif. Oligomers used for amplification included SK38, SK39, and SK19 (Kellog et al., 1990, “In PCR Protocols: A Guide to Methods and Applications,” pp. 337-348, M. A. Innis, D. H. Gelfand, J. J. Sninsky, and T. J. White, eds. Academic Press, Berkeley, Calif.). Biotinylation of SK38 and horseradish peroxidase (HRP) labeling of probe SK19 were prepared as described in Levenson et al., 1990, “In PCR Protocols: A Guide to Methods and Applications,” pp. 99-112M. S. Innis, D. H. Gelfand, J. J. Sninsky, and T. J. White, eds. Academic Press, Berkeley, Calif. Amplification of HIV cDNA was carried out as follows: to a 100-μl reaction mixture was added the cDNA, 50 pmol of primers SK38 and SDK39, […] of each dNTP, 10 mM Tris (pH 8.3), 2.5 mM MgCl2, 50 mM KCl, and 2.5 U of recombiTaq DNA polymerase (Perkin-Elmer Cetus, Norwalk, Conn.). The mixture was then overlaid with 50 μl of mineral oil. Tubes were placed in a DNA thermal cycler (Perkin-Elmer Cetus) for 30 cycles of amplification with the following program: 95° C./30 s, 55° C./30s, and 72° C./60 s for denaturation, annealing, and extension, respectively. Negative and positive controls which included both high and low copy number HIV RNA and DNA were added at each step.
To detect and quantitate PCR product, 96-well microplates (Maxisorp; Nunc, Naperville, Ill.) were coated with 100 μl of a 0.1 mg/ml solution of avidin (Sigma Chemical Co., St. Louis, Mo.) in 50 mM Na2CO3 (pH 9.6) overnight at room temperature. Wells were then washed twice with PBS. Wells were then filled with 300 μl of a blocking solution containing 5X Denhardt's solution, 1% gelatin (Sigma), […] sheared herring sperm DNA (Promega Biotec, Madison, Wis.) at least overnight at 4° C. […]

CD4 cells = system: CD4 cells; set-up: species or system human (HIV antibody-positive subjects); conditions: human, in vivo
Procedure: as §1
Sample optical density was converted to copy number and analyses performed on samples expressed as RNA copy number/200 μl of plasma. […] A t test of paired samples was used to analyze paired plasma data and CD4 counts from subjects pre- and post-therapy. All t tests were two tailed. […]

serum HIV RNA = assay: Serum virus burden by quantitative PCR in patients receiving didanosine monotherapy; assay type: in vivo, human (patients infected with HIV)
Description: Duplicate serum samples were ultracentrifuged, and the pellet was purified by phenol-chloroform extraction and alcohol precipitation, as previously described for plasma (Winters et al., 1993, J. Clin. Microbiol. 31:2960-2966). Polymerase chain reaction quantification of viral RNA was done using reverse-transcriptase PCR, and the PCR product was detected using a nonisotopic enzyme-hybridization assay, as previously described (Winters et al., 1992, PCR Methods Appl. 1:257-262). Results were then expressed as HIV RNA copies per milliliter of serum.
(§2) A two-sided t-test was used to compare changes in virus burden between patient groups. A standard one-sample, two-sided Wilcoxon test was used to compare differences in the change of slopes of CD4^+ T cells (slopes of CD4^+ cells before the mutation compared with slopes of CD4^+ cells after the mutation) for patients developing a mutation at codon 74. The slope difference test analysis pertained to the slope difference statistic, defined to be the difference in fitted slope of the CD4^+ counts after compared with before the mutation at codon 74. Thirty-four of 38 patients in the mutation group had sufficient data to allow computation of the slope difference statistic.

CD4+ T cells = assay: CD4+ T-cell slope changes before/after codon 74 mutation on didanosine; assay type: in vivo, human (patients infected with HIV); conditions: 34 of 38 patients who developed the mutation; CI −2.68 to −0.71
Description: as §2
We compared the slope difference statistic values for the 34 mutants with the corresponding values from the wild-type group in order to see if they were more negative in the mutant group. […]

[1] = system: HIV with codon 74 mutation in reverse transcriptase; conditions: codon 74 mutation in an HIV construct (St. Clair et al.); cited from earlier work

OC[C@@H]1CC[C@H](n2cnc3c(O)ncnc32)O1 [ddI, 2′,3′-dideoxyinosine]
Post HIV RNA (plasma HIV RNA; 1 mo after initiation, ddI 500 mg/d): 0 copy number/200 μl of plasma
Pre HIV RNA (plasma HIV RNA; before initiation of therapy): 966 copy number/200 μl of plasma and 3944 copy number/200 μl of plasma
Post CD4 (CD4 cells): 328/310 and 222/370
Pre CD4 (CD4 cells): 328/310 and 222/370
Fold Difference in virus burden, mutant vs wild type (serum HIV RNA; Week 0, listed as DIDANOSINE): 1.66 fold
Fold Difference in virus burden, mutant vs wild type (serum HIV RNA; Week 0, listed as didanosine): 1.6 fold
Fold Difference in virus burden, mutant vs wild type (serum HIV RNA; Week 24, listed as DIDANOSINE): 2.71 fold
Fold Difference in virus burden, mutant vs wild type (serum HIV RNA; Week 24, listed as didanosine): 2.7 fold
Week 0, mean HIV RNA copies/mL serum (serum HIV RNA; patients whose codon 74 genotypes became mutant, initiation of didanosine): 83 000 copies/mL serum
Week 0, mean HIV RNA copies/mL serum (serum HIV RNA; patients whose codon 74 genotypes remained wild type, initiation of didanosine, listed as DIDANOSINE): 50100 copies/mL serum
Week 0, mean HIV RNA copies/mL serum (serum HIV RNA; patients whose codon 74 genotypes remained wild type, initiation of didanosine, listed as didanosine): 50 100 copies/mL serum
Fold increase in virus burden between week 0 to 24 (serum HIV RNA; remained wild type at codon 74): 1.65 fold
Week 24, mean HIV RNA copies/mL serum (serum HIV RNA; remained wild type at codon 74): 82400 copies/mL serum
mean serum virus burden (serum HIV RNA; subgroup codon 74 mutation with codon 215 mutation, after 24 weeks of didanosine): about 275 400 HIV RNA copies/mL serum
Week 0, mean HIV RNA copies/mL serum (serum HIV RNA; {}): 83000 copies/mL serum
Week 24, mean HIV RNA copies/mL serum (serum HIV RNA; {}): 225000 copies/mL serum
median greater decline of CD4+ T-cell slope after vs before codon 74 mutation (CD4+ T cells): −1.54 CD4^+ cells/wk
decrease in susceptibility to didanosine [1]: eightfold
